The record followed here is ChEMBL document CHEMBL4316641, “Synthesis and Anti-HIV Profile of a Novel Tetrahydroindazolylbenzamide Derivative Obtained by Oxazolone Chemistry” (ACS Med Chem Lett, 2019).

Calls of active or inactive are those of the source. The calls are words filed in the database; no cut-off is given here.

Series [1] has as its system Human immunodeficiency virus. Briefly: Inhibition of reverse transcriptase in HIV1 NL4.3 infected in human HeLaP4 cells assessed as reduction in formation of reverse transcribed DNA at 50 fold antiviral EC50 incubated up to 60 mins by quantitative PCR analysis. The class given is cell-based.
The subject of series [2] is Human immunodeficiency virus. The experiment in a line: Antiviral activity against HIV infected in human MT4 cells assessed as inhibition of virus-induced cytopathogenicity by MTT assay. The class given is functional, organism-based.
Series [3] in a line: Cytotoxicity against human MT4 cells assessed as reduction in cell viability by MTT assay. The class given is cell-based.
Series [4] in a line: Selectivity index, ratio of CC50 for cytotoxicity against human MT4 cells assessed as reduction in cell viability by MTT assay to EC50 for antiviral activity against HIV infected in human MT4 cells assessed as inhibition of virus-induced cytopathogenicity by MTT assay. The class given is toxicity, cell-based. The following applies: read-out: Ratio CC50/EC50. On the technique in general: Formazan colour is commonly taken as a measure of viable cells.

The target of series [5] is Human immunodeficiency virus type 1 integrase (Human immunodeficiency virus 1) (UniProt Q7ZJM1). Briefly: Inhibition of HIV integrase strand transfer activity.
Chain of Human immunodeficiency virus type 1 integrase (Human immunodeficiency virus 1) (Q7ZJM1 as listed by the source): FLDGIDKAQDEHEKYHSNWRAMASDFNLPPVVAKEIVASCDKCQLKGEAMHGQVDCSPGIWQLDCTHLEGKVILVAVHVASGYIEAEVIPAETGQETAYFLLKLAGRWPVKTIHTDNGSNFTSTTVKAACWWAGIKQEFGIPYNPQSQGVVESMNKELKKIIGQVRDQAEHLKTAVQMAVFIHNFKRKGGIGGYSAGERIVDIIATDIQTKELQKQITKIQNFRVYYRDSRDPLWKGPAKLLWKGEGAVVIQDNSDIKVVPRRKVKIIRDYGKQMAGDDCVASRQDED
Series [6] shares this target. The experiment in a line: Inhibition of integrase in HIV1 NL4.3 infected in human HeLaP4 cells assessed as increase in increase in 2-LTR circles at 50 fold antiviral EC50 incubated up to 60 mins by quantitative PCR analysis. The class given is cell-based.
The subject of series [7] is Human immunodeficiency virus. The experiment in a line: Inhibition of reverse transcriptase in HIV1 NL4.3 infected in human HeLaP4 cells assessed as reduction in formation of 2-LTRs at 50 fold antiviral EC50 incubated up to 60 mins by quantitative PCR analysis. The class given is cell-based.
The test system of series [8] is Human immunodeficiency virus. Briefly: Inhibition of reverse transcriptase in HIV1 NL4.3 infected in human HeLaP4 cells assessed as reduction in integrated provirus formation at 50 fold antiviral EC50 incubated up to 60 mins by quantitative PCR analysis. The class given is cell-based.
For series [9], the system named is Human immunodeficiency virus. The experiment in a line: Inhibition of reverse transcriptase in HIV1 NL4.3 infected in human HeLaP4 cells assessed as reduction in late reverse transcription by time of addition assay. The class given is cell-based.

Take `Cc1cn([C@H]2C[C@H](N=[N+]=[N-])[C@@H](CO)O2)c(=O)[nH]c1=O`: the inhibition result in [1] is “Active”.

Regarding `CC(NC(=O)c1ccccc1)c1nn(-c2ccc(C(N)=O)cc2)c2c1C(=O)CC(C)(C)C2` (racemic), the EC50 (as a rule, the midpoint of the concentration-response curve) in [2] (Human immunodeficiency virus 1, MT4, read-out: EC50) was found to be 2.77 µM. For the same compound, the CC50 (commonly the concentration giving 50% cytotoxicity) in [3] is 119 µM. The selectivity ratio in series [4] was found to be 68. Further, the inhibition result in series [5] and in series [6] was “inactive” in each case. Besides, the inhibition result in series [1], in series [7], in [8] and in [9] was “Active” throughout.

As for `CC(N)c1nn(-c2ccc(C(=O)O)cc2)c2c1C(=O)CC(C)(C)C2.Cl` (racemic), the EC50 entry in series [2] was “Not Active”.

For the compound `CC(NC(=O)c1ccccc1)c1nn(-c2ccc(C#N)cc2)c2c1C(=O)CC(C)(C)C2` (racemic), in [2], the EC50 result is recorded as “Not Active”.
